Measured values as given in patent publication US20080069899A1, “Pharmaceutical Compositions Comprising Beta-Carboline Derivatives and Use Thereof for the Treatment of Cancer” (priority 2004, published 2008).
Where “and” joins values, the source holds several entries; their conditions need not be identical. Identical values can stand only once. Counter-ions that a name gives are not always drawn. Like-named read-outs stand apart in the source and are kept apart here.

How the values were obtained:
[1] = system: malignant and endothelial cells tested; assay: summary of in vitro cytotoxicity over all lines tested; format: cell-based, human; details: range over the cell lines, read-out: IC50 vis-à-vis malignant and endothelial cells tested
Procedure: (§1) The cytotoxic effects of the different alkaloid extracts of P. harmala were studied on several cell lines: • human leukemia cell lines: K562 and Jurkat (leukemia), U937 (myeloma), • human solid tumor cell lines: KB (epithelioma of the nasopharynx) and HT29 (colon), • immortalized human bone marrow endothelial cell lines: HBMEC.
(§2) The cells are cultured in an oven under a 5% CO2 atmosphere and at 37° C., in RPMI 1640 medium for K562, Jurkat, U937 and HT29 and DMEM for KB, supplemented with 10% foetal calf serum, 0.01% penicillin-streptomycin and L-glutamine 2 mM and in EGM2 medium for the HBMEC cells.
(§3) The cytotoxicity test is carried out in a 96-well microplate in the presence of the extract to be tested at varying concentrations of 40, 20, 10, 5, 1, 0.5 μg/ml and in the absence of product, after incubation for 4 days at 37° C. On the 3rd day, a solution of neutral red is added which is absorbed by living cells. The optical density (OD) of dye released by lyzed cells is measured at 540 nm by an Elisa plate reader. The toxicity (% inhibition of growth) is inversely proportional to the optical density.
(§4) The percentage of inhibition is defined as being the difference between the OD without product and the OD in the presence of product compared to the OD without product.
(§5) The concentration inhibiting 50% of cell growth is obtained from the curve representing the percentage of inhibition as a function of the logarithm of the concentration.
To summarize, the IC50 vis-à-vis malignant and endothelial cells tested is the following: […]

K562 (leukemia) = assay: in vitro cytotoxicity test (neutral red, 96-well microplate); format: cell-based; details: Homo sapiens, incubation 4 days
Procedure: as §1, §2, §3, §4, §5

Jurkat (leukemia) = assay: as above; format: cell-based; details: Homo sapiens, 96 h, incubation 4 days
Procedure: as §1, §2, §3, §4, §5

[2] = system: KB (epithelioma of the nasopharynx); assay: as above; format: cell-based; details: Homo sapiens, 96 h, incubation 4 days
Procedure: as §1, §2, §3, §4, §5

[3] = system: HT29 human colon tumor cells; assay: in vivo antineoplastic activity, NOD-SCID mice xenografted with HT29 human tumour cells
Procedure: (§6) The animal model chosen is that of severe combined immunodeficient (NOD-SCID) mice having received a xenograft of human tumor cells.
(§7) Male and female NOD-SCID mice, more than 3 months old, were raised in an environment of strict sterility, in an insulator ventilated with filtered air and sterilized, at 22° C. and 40% humidity, with a day-12 h/night-12 h cycle. The cages, feeding bottles and the water were sterilized in an autoclave at 120° C. for 30 minutes and the food as well as the bedding were treated with γ-irradiation. All handling took place in aseptic conditions under a laminar flow hood.
The mice were subjected to general anaesthesia by i.p. injection of 0.3 to 0.4 ml of hypnomidate at 2 mg/ml. 1×10^7 HT29 human colon tumor cells in suspension in 200 μl of PBS were then injected sub-cutaneously, into the backs of the mice. […]
50 mg of 5-fluorouracil (Sigma) were dissolved in 8 ml of water and the solution obtained was sterilized by filtration on a membrane with 0.22 μm porosity. […]

[4] = Procedure: as §6, §7
150 mg of cyclophosphamide (Sigma) were dissolved in 8 ml of water and the solution obtained was sterilized by filtration on a membrane with 0.22 μm porosity.
50 mg of 5-fluorouracil (Sigma) were dissolved in 8 ml of water and the solution obtained was sterilized by filtration on a membrane with 0.22 μm porosity.
100 mg of dihydrated harmalacidine hydrochloride were dissolved in 8 ml of water and the solution obtained was sterilized by filtration on a membrane with 0.22 μm porosity. The mice received either 25, 50, or 100 mg/kg/day of harmalacidine alone, or a mixture of 25 or 50 mg/kg/day of harmalacidine+50 mg/kg/day of cyclophosphamide.

[5] = system: HBMEC (immortalized human bone marrow endothelial cell lines); assay: in vitro cytotoxicity test (neutral red, 96-well microplate); format: cell-based; details: 96 h, incubation 4 days
Procedure: as §1, §2, §3, §4, §5

U937 (myeloma) = assay: as above; format: cell-based; details: Homo sapiens, U-937, 96 h, incubation 4 days
Procedure: as §1, §2, §3, §4, §5

## COc1ccc2c(c1)[nH]c1c(C)nccc12 [Harmine•HCl•2H2O, dihydrated harmine hydrochloride]
[1]; hydrochloride
  IC50: 10.5 to 35 µM

## OC1CCN2Cc3ccccc3N=C12 (centres unmarked) [Peganine (B), Peganine]
K562 (leukemia); K562, 96 h
  IC50: 35 µg/mL and 186 µM
Jurkat (leukemia)
  IC50: 75 µg/mL and 399 µM
[2]
  IC50: > 50 µg/mL and > 266 µM

## O=P1(N(CCCl)CCCl)NCCCO1 (centres unmarked) [cyclophosphamide]
[3]; cyclophosphamide 50 mg/kg/day alone, Day 15
  Average volume of the tumours of the treated mice compared to the average volume of the tumours of the non-treated mice (T/C) (%): 63%
[3]; cyclophosphamide 50 mg/kg/day alone, Day 30
  Average volume of the tumours of the treated mice compared to the average volume of the tumours of the non-treated mice (T/C) (%): 42%
[3]; cyclophosphamide 50 mg/kg/day alone, Day 40
  Average volume of the tumours of the treated mice compared to the average volume of the tumours of the non-treated mice (T/C) (%): 37%
[3]; cyclophosphamide 50 mg/kg/day alone, Day 50
  Average volume of the tumours of the treated mice compared to the average volume of the tumours of the non-treated mice (T/C) (%): 36%
[3]; cyclophosphamide 50 mg/kg/day alone, Day 60
  Average volume of the tumours of the treated mice compared to the average volume of the tumours of the non-treated mice (T/C) (%): 32%
[3]; cyclophosphamide 100 mg/kg/day alone, Day 15
  Average volume of the tumours of the treated mice compared to the average volume of the tumours of the non-treated mice (T/C) (%): 47%
[3]; cyclophosphamide 100 mg/kg/day alone, Day 30
  Average volume of the tumours of the treated mice compared to the average volume of the tumours of the non-treated mice (T/C) (%): 25%
[3]; cyclophosphamide 100 mg/kg/day alone, Day 40
  Average volume of the tumours of the treated mice compared to the average volume of the tumours of the non-treated mice (T/C) (%): 18%
[3]; cyclophosphamide 100 mg/kg/day alone, Day 50
  Average volume of the tumours of the treated mice compared to the average volume of the tumours of the non-treated mice (T/C) (%): 14%
[3]; cyclophosphamide 100 mg/kg/day alone, Day 60
  Average volume of the tumours of the treated mice compared to the average volume of the tumours of the non-treated mice (T/C) (%): 15%
[3]; cyclophosphamide 150 mg/kg/day alone, Day 15
  Average volume of the tumours of the treated mice compared to the average volume of the tumours of the non-treated mice (T/C) (%): 4%
[4]; cyclophosphamide 150 mg/kg/day alone, all died around the 15th day of treatment
  tolerance of the dose: did not tolerate

## CC[C@]1(O)C[C@@H]2CN(CCc3c([nH]c4ccccc34)[C@@](C(=O)OC)(c3cc4c(cc3OC)N(C)[C@H]3[C@@](O)(C(=O)OC)[C@H](OC(C)=O)[C@]5(CC)C=CCN6CC[C@]43[C@@H]65)C2)C1 [vinblastine, reference compound]
[3]; vinblastine between 0.125 and 0.5 mg/kg/day, sub-cutaneous administration, until the 40th day
  antineoplastic activity: dose-dependent
[4]; mouse, in vivo
  tolerance of the dose: not tolerated

## dihydrated harmalacidine hydrochloride
[1]
  IC50: 34.4 to 134 µM

## O=c1[nH]cc(F)c(=O)[nH]1 [5-fluorouracil]
[3]; 5-fluorouracil 3 mg/kg/day alone per os, Day 15
  Average volume of the tumours of the treated mice compared to the average volume of the tumours of the non-treated mice (T/C) (%): 43%
[3]; 5-fluorouracil 3 mg/kg/day alone per os, Day 30
  Average volume of the tumours of the treated mice compared to the average volume of the tumours of the non-treated mice (T/C) (%): 56%
[3]; 5-fluorouracil 3 mg/kg/day alone per os, Day 40
  Average volume of the tumours of the treated mice compared to the average volume of the tumours of the non-treated mice (T/C) (%): 66%
[3]; 5-fluorouracil 3 mg/kg/day alone per os, Day 50
  Average volume of the tumours of the treated mice compared to the average volume of the tumours of the non-treated mice (T/C) (%): 61%
[3]; 5-fluorouracil 3 mg/kg/day alone per os, Day 60
  Average volume of the tumours of the treated mice compared to the average volume of the tumours of the non-treated mice (T/C) (%): 86%
[3]; 5-fluorouracil 6 mg/kg/day alone per os, Day 15
  Average volume of the tumours of the treated mice compared to the average volume of the tumours of the non-treated mice (T/C) (%): 37%
[3]; 5-fluorouracil 6 mg/kg/day alone per os, Day 30
  Average volume of the tumours of the treated mice compared to the average volume of the tumours of the non-treated mice (T/C) (%): 53%
[3]; 5-fluorouracil 6 mg/kg/day alone per os, Day 40
  Average volume of the tumours of the treated mice compared to the average volume of the tumours of the non-treated mice (T/C) (%): 60%
[3]; 5-fluorouracil 6 mg/kg/day alone per os, Day 50
  Average volume of the tumours of the treated mice compared to the average volume of the tumours of the non-treated mice (T/C) (%): 64%
[3]; 5-fluorouracil 6 mg/kg/day alone per os, Day 60
  Average volume of the tumours of the treated mice compared to the average volume of the tumours of the non-treated mice (T/C) (%): 70%
[3]; 5-fluorouracil 9 mg/kg/day alone per os, Day 15
  Average volume of the tumours of the treated mice compared to the average volume of the tumours of the non-treated mice (T/C) (%): 41%
[3]; 5-fluorouracil 9 mg/kg/day alone per os, Day 30
  Average volume of the tumours of the treated mice compared to the average volume of the tumours of the non-treated mice (T/C) (%): 41%
[3]; 5-fluorouracil 9 mg/kg/day alone per os, Day 40
  Average volume of the tumours of the treated mice compared to the average volume of the tumours of the non-treated mice (T/C) (%): 59%
[3]; 5-fluorouracil 9 mg/kg/day alone per os, Day 50
  Average volume of the tumours of the treated mice compared to the average volume of the tumours of the non-treated mice (T/C) (%): 52%
[3]; 5-fluorouracil 9 mg/kg/day alone per os, Day 60
  Average volume of the tumours of the treated mice compared to the average volume of the tumours of the non-treated mice (T/C) (%): 59%
[3]; 5-fluorouracil 12 mg/kg/day alone per os, Day 15
  Average volume of the tumours of the treated mice compared to the average volume of the tumours of the non-treated mice (T/C) (%): 73%
[3]; 5-fluorouracil 12 mg/kg/day alone per os, Day 30
  Average volume of the tumours of the treated mice compared to the average volume of the tumours of the non-treated mice (T/C) (%): 66%
[3]; 5-fluorouracil 12 mg/kg/day alone per os, Day 40
  Average volume of the tumours of the treated mice compared to the average volume of the tumours of the non-treated mice (T/C) (%): 54%
[3]; 5-fluorouracil 12 mg/kg/day alone per os, Day 50
  Average volume of the tumours of the treated mice compared to the average volume of the tumours of the non-treated mice (T/C) (%): 47%
[3]; 5-fluorouracil 12 mg/kg/day alone per os, Day 60
  Average volume of the tumours of the treated mice compared to the average volume of the tumours of the non-treated mice (T/C) (%): 59%
[3]; 5-fluorouracil 24 mg/kg/d, alternating 6 days of treatment and 6 days of rest, until the 20th day of the treatment
  T/C: 17%
[3]; 5-fluorouracil 24 mg/kg/day alone, alternating 6 days of treatment and 6 days of rest, Day 15
  Average volume of the tumours of the treated mice compared to the average volume of the tumours of the non-treated mice (T/C) (%): 17%
[3]; 5-fluorouracil 24 mg/kg/day alone, alternating 6 days of treatment and 6 days of rest, Day 30
  Average volume of the tumours of the treated mice compared to the average volume of the tumours of the non-treated mice (T/C) (%): 54%
[3]; 5-fluorouracil 24 mg/kg/day alone, alternating 6 days of treatment and 6 days of rest, Day 40
  Average volume of the tumours of the treated mice compared to the average volume of the tumours of the non-treated mice (T/C) (%): 54%
[4]; both, NOD-SCID, mouse, in vivo
  day of administration at which the dose becomes lethal: 35 to 45 days

## CC[C@@]1(O)C(=O)OCc2c1cc1n(c2=O)Cc2cc3ccccc3nc2-1 [Camptothecin, reference compound]
[5]
  IC50: 0.025 µg/mL and 70 nM
K562 (leukemia); 96 h
  IC50: 0.014 µg/mL and 40 nM
U937 (myeloma)
  IC50: 0.023 µg/mL and 70 nM
Jurkat (leukemia)
  IC50: 0.003 µg/mL and 90 nM
[2]
  IC50: 0.035 µg/mL and 100 nM

## O=C1NCCc2c1[nH]c1cc(O)ccc21 [Demethyl-harmalacidine (D), demethyl harmalacidine]
[5]
  IC50: 17 µg/mL and 84.1 µM
K562 (leukemia); K562, 96 h
  IC50: 20 µg/mL and 99 µM
Jurkat (leukemia)
  IC50: 8.5 µg/mL and 42 µM
[2]
  IC50: 10 µg/mL and 49.5 µM
